In ChEMBL document CHEMBL5608173, “Discovery of novel natural-product-derived mutant isocitrate dehydrogenases 1 inhibitors: Structure-based virtual screening, biological evaluation and structure-activity relationship study” (Eur J Med Chem, 2024):

Key:
[1] = Tmax in Sprague-Dawley rat at 0.5 mg/kg, iv measured after 24 hrs by LC-MS/MS analysis; format: ADME, organism-based; conditions: in vivo
[2] = system: HT-1080; test: Cell cycle arrest in human HT-1080 cells assessed as G1 phase cells at 10 uM incubated for 24 hrs by PI staining based flow cytometric analysis (reference value: 58.1 %); format: functional
[3] = system: L02; test: Cytotoxicity against human L02 cells assessed as reduction in cell viability at 0.5 to 2 uM; format: toxicity, cell-based; conditions: l02, 2 µM, dose 0.5-2 µM
[4] = system: HT-1080; test: Induction of apoptosis in human HT-1080 cells assessed as necrotic cells at 6 uM incubated for 24 hrs by Annexin V-FITC/PI staining based flow cytometric analysis (reference value: 0.38 %); format: functional
[5] = system: HT-1080; test: Cell cycle arrest in human HT-1080 cells assessed as G1 phase cells at 4 uM incubated for 24 hrs by PI staining based flow cytometric analysis (reference value: 58.1 %); format: functional
[6] = molecular target: T1, Isocitrate dehydrogenase [NADP] cytoplasmic (Homo sapiens, UniProt O75874, R132C); test: Inhibition of recombinant human IDH1 R132C mutant extracted from Escherichia coli BL21 (DE3) cells using alpha-ketoglutarate as substrate incubated for 60 mins in presence of NADPH by absorbance based assay
[7] = system: HT-1080; test: Cell cycle arrest in human HT-1080 cells assessed as S phase cells at 10 uM incubated for 24 hrs by PI staining based flow cytometric analysis (reference value: 18.3 %); format: functional
[8] = system: HT-1080; test: Induction of apoptosis in human HT-1080 cells assessed as late apoptotic cells at 2 uM incubated for 48 hrs by Annexin V-FITC/PI staining based flow cytometric analysis (reference value: 1.15 %); format: functional
[9] = system: HT-1080; test: Cell cycle arrest in human HT-1080 cells assessed as G1 phase cells at 2 uM incubated for 24 hrs by PI staining based flow cytometric analysis (reference value: 58.1 %); format: functional
[10] = system: U-87 MG; test: Antiproliferative activity against human U-87 MG cells assessed as reduction in cell viability incubated for 72 hrs by MTT assay; format: functional, U-87MG ATCC
[11] = system: HT-1080; test: Induction of apoptosis in human HT-1080 cells assessed as necrotic cells at 6 uM incubated for 12 hrs by Annexin V-FITC/PI staining based flow cytometric analysis (reference value: 0.38 %); format: functional
[12] = Clearance in Sprague-Dawley rat at 0.5 mg/kg, iv measured after 24 hrs by LC-MS/MS analysis; format: ADME, organism-based; conditions: in vivo
[13] = system: HT-1080; test: Induction of apoptosis in human HT-1080 cells assessed as early apoptotic cells at 6 uM incubated for 12 hrs by Annexin V-FITC/PI staining based flow cytometric analysis (reference value: 2.36 %); format: functional
[14] = system: HT-1080; test: Cell cycle arrest in human HT-1080 cells assessed as G2 phase cells at 2 uM incubated for 24 hrs by PI staining based flow cytometric analysis (reference value: 23.6 %); format: functional
[15] = system: HT-1080; test: Cell cycle arrest in human HT-1080 cells assessed as S phase cells at 4 uM incubated for 24 hrs by PI staining based flow cytometric analysis (reference value: 18.3 %); format: functional
[16] = system: HT-1080; test: Induction of apoptosis in human HT-1080 cells assessed as late apoptotic cells at 6 uM incubated for 24 hrs by Annexin V-FITC/PI staining based flow cytometric analysis (reference value: 0.60 %); format: functional
[17] = system: HT-1080; test: Induction of apoptosis in human HT-1080 cells assessed as viable cells at 4 uM incubated for 48 hrs by Annexin V-FITC/PI staining based flow cytometric analysis (reference value: 96.07 %); format: functional; conditions: read-out: Activity
[18] = molecular target: Isocitrate dehydrogenase [NADP] cytoplasmic (Homo sapiens, UniProt O75874, R132H); test: Inhibition of IDH1 R132H mutant in human U-87 MG cells assessed as reduction in 2-HG level incubated for 48 hrs in presence of NAD+ by resazurin fluorescence dye based Sigma MAK320-1 assay kit analysis; format: cell-based
[19] = system: U-87 MG; test: Antiproliferative activity against human U-87 MG cells harboring IDH1 R132H mutant assessed as reduction in cell viability incubated for 72 hrs by MTT assay; format: functional, U-87MG ATCC
[20] = system: HT-1080; test: Induction of apoptosis in human HT-1080 cells assessed as early apoptotic cells at 2 uM incubated for 48 hrs by Annexin V-FITC/PI staining based flow cytometric analysis (reference value: 2.33 %); format: functional
[21] = system: HT-1080; test: Induction of apoptosis in human HT-1080 cells assessed as early apoptotic cells at 6 uM incubated for 24 hrs by Annexin V-FITC/PI staining based flow cytometric analysis (reference value: 2.36 %); format: functional
[22] = Clearance in Sprague-Dawley rat at 5 mg/kg, po measured after 24 hrs by LC-MS/MS analysis; format: ADME, organism-based; conditions: in vivo
[23] = Tmax in Sprague-Dawley rat at 5 mg/kg, po measured after 24 hrs by LC-MS/MS analysis; format: ADME, organism-based; conditions: in vivo
[24] = system: HT-1080; test: Induction of apoptosis in human HT-1080 cells assessed as necrotic cells at 6 uM incubated for 48 hrs by Annexin V-FITC/PI staining based flow cytometric analysis (reference value: 0.38 %); format: functional
[25] = molecular target: T1, Isocitrate dehydrogenase [NADP] cytoplasmic; test: Inhibition of IDH1 R132C mutant in human HT-1080 cells assessed as reduction in 2-HG level incubated for 48 hrs in presence of NAD+ by resazurin fluorescence dye based Sigma MAK320-1 assay kit analysis; format: cell-based
[26] = system: HT-1080; test: Induction of apoptosis in human HT-1080 cells assessed as early apoptotic cells at 4 uM incubated for 48 hrs by Annexin V-FITC/PI staining based flow cytometric analysis (reference value: 2.33 %); format: functional
[27] = system: HT-1080; test: Induction of apoptosis in human HT-1080 cells assessed as viable cells at 6 uM incubated for 12 hrs by Annexin V-FITC/PI staining based flow cytometric analysis (reference value: 96.65 %); format: functional; conditions: read-out: Activity
[28] = system: HT-1080; test: Induction of apoptosis in human HT-1080 cells assessed as necrotic cells at 4 uM incubated for 48 hrs by Annexin V-FITC/PI staining based flow cytometric analysis (reference value: 0.45 %); format: functional
[29] = system: HT-1080; test: Cell cycle arrest in human HT-1080 cells assessed as S phase cells at 8 uM incubated for 24 hrs by PI staining based flow cytometric analysis (reference value: 18.3 %); format: functional
[30] = system: HT-1080; test: Cell cycle arrest in human HT-1080 cells assessed as G2 phase cells at 8 uM incubated for 24 hrs by PI staining based flow cytometric analysis (reference value: 23.6 %); format: functional
[31] = system: HT-1080; test: Antiproliferative activity against human HT-1080 cells harboring IDH1 R132C mutant assessed as reduction in cell viability incubated for 72 hrs by MTT assay; format: functional
[32] = system: Isocitrate dehydrogenase [NADP] cytoplasmic (Homo sapiens), O75874 [R132C]; test: Inhibition of recombinant human IDH1 R132C mutant extracted from Escherichia coli BL21 (DE3) cells using alpha-ketoglutarate as substrate at 2 uM incubated for 60 mins in presence of NADPH by absorbance based assay relative to control
[33] = molecular target: Isocitrate dehydrogenase [NADP] cytoplasmic (Homo sapiens, UniProt O75874); test: Inhibition of recombinant human wildtype IDH1 extracted from Escherichia coli BL21 (DE3) cells using alpha-ketoglutarate as substrate incubated for 60 mins in presence of NADPH by absorbance based assay
Sequence of Isocitrate dehydrogenase [NADP] cytoplasmic (Homo sapiens, UniProt O75874) (O75874 whole entry): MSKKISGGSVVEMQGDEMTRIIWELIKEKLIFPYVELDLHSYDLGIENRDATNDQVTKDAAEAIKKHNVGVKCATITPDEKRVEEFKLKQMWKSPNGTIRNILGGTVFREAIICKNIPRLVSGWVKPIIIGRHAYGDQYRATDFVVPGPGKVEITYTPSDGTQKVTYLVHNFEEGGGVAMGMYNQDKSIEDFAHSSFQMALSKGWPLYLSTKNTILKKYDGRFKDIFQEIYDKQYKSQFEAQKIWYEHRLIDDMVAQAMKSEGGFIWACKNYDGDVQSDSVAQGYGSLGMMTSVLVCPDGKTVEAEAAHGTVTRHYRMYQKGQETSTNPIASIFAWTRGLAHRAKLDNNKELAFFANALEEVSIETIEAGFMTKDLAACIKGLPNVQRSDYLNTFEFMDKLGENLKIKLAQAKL

T1 sequence (O75874 2-414 R132C limits assumed): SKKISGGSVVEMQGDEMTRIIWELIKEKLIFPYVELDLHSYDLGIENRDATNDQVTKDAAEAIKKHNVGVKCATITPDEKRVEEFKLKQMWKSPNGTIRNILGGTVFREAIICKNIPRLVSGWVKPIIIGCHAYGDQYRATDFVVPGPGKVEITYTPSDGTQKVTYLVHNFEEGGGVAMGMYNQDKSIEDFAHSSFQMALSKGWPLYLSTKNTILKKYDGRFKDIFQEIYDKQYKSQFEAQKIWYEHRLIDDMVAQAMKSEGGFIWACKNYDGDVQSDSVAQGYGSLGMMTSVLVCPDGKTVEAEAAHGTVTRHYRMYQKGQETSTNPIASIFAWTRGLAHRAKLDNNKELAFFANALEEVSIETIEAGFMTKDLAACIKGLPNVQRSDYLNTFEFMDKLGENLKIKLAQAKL
Sequence of Isocitrate dehydrogenase [NADP] cytoplasmic (Homo sapiens, UniProt O75874, R132H) (O75874 2-414 R132H limits assumed): as the sequence (O75874 2-414 R132C limits assumed) above, with C131H counted along it
Sequence of Isocitrate dehydrogenase [NADP] cytoplasmic (Homo sapiens), O75874 [R132C] (O75874 whole entry R132C): as the sequence (O75874 whole entry) above, with R132C counted along it

## COc1cc(O)c(-c2cc(-c3ccc(O)cc3)nc(N3CCNCC3)n2)cc1CC=C(C)C
[1]
  Tmax: 1.8 min
[2]
  Activity: 45.4%
[3]
  Activity: Non-Toxic
[4]
  Activity: 4.16%
[5]
  Activity: 56.1%
[6]
  IC50: 95.7 nM
[7]
  Activity: 51.6%
[8]
  Activity: 4.96%
[9]
  Activity: 55.7%
[10]
  GC50: 6910 nM
[11]
  Activity: 4.99%
[12]
  clearance: 27.3 mL/min/kg
[13]
  Activity: 0.62%
[14]
  Activity: 21.9%
[15]
  Activity: 22.9%
[16]
  Activity: 5.26%
[17]
  viability at 4 µM: 83.7%
[18]
  EC50: 182 nM
[19]
  GC50: 3480 nM
[20]
  Activity: 5.1%
[21]
  Activity: 3.25%
[22]
  CL/F: 168 mL/min/kg
[23]
  Tmax: 11.4 min
[24]
  Activity: 1.35%
[25]
  EC50: 84 nM
[26]
  Activity: 4.48%
[27]
  viability at 6 µM: 91.5%
[28]
  Activity: 2.13%
[29]
  Activity: 32.3%
[30]
  Activity: 15.9%
[31]
  GC50: 1380 nM
[32]
  inhibition: > 100%
[33]
  IC50: > 20000 nM
